Experimental data as given in US8835472B2, “Compounds, pharmaceutical compositions and uses thereof” (Boehringer Ingelheim International GmbH, priority 2010, dated 2014).

These compounds were tested against human ACC2 (Homo sapiens (Human), UniProt O00763) (assay: ACC2 assay, spectrophotometric 384 well assay (NADH-linked, coupled lactate dehydrogenase/pyruvate kinase reaction)). Settings: hACC2 construct lacking the 128 N-terminal amino acids; 25° C., 340 nm over 15 minutes.
Format: biochemical
How it was run: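 Kinetic NADH-linked assay (pyruvate kinase/lactate dehydrogenase coupling) with baculovirus-expressed hACC2 missing its first 128 amino acids. Started with 500 μM ATP and 200 μM each NADH and acetyl-CoA; slope followed 15 min at 25 °C, pH 7.5. No-acetyl-CoA wells define 0%; IC50 by nonlinear regression.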

Chain of human ACC2 (O00763 129-2458): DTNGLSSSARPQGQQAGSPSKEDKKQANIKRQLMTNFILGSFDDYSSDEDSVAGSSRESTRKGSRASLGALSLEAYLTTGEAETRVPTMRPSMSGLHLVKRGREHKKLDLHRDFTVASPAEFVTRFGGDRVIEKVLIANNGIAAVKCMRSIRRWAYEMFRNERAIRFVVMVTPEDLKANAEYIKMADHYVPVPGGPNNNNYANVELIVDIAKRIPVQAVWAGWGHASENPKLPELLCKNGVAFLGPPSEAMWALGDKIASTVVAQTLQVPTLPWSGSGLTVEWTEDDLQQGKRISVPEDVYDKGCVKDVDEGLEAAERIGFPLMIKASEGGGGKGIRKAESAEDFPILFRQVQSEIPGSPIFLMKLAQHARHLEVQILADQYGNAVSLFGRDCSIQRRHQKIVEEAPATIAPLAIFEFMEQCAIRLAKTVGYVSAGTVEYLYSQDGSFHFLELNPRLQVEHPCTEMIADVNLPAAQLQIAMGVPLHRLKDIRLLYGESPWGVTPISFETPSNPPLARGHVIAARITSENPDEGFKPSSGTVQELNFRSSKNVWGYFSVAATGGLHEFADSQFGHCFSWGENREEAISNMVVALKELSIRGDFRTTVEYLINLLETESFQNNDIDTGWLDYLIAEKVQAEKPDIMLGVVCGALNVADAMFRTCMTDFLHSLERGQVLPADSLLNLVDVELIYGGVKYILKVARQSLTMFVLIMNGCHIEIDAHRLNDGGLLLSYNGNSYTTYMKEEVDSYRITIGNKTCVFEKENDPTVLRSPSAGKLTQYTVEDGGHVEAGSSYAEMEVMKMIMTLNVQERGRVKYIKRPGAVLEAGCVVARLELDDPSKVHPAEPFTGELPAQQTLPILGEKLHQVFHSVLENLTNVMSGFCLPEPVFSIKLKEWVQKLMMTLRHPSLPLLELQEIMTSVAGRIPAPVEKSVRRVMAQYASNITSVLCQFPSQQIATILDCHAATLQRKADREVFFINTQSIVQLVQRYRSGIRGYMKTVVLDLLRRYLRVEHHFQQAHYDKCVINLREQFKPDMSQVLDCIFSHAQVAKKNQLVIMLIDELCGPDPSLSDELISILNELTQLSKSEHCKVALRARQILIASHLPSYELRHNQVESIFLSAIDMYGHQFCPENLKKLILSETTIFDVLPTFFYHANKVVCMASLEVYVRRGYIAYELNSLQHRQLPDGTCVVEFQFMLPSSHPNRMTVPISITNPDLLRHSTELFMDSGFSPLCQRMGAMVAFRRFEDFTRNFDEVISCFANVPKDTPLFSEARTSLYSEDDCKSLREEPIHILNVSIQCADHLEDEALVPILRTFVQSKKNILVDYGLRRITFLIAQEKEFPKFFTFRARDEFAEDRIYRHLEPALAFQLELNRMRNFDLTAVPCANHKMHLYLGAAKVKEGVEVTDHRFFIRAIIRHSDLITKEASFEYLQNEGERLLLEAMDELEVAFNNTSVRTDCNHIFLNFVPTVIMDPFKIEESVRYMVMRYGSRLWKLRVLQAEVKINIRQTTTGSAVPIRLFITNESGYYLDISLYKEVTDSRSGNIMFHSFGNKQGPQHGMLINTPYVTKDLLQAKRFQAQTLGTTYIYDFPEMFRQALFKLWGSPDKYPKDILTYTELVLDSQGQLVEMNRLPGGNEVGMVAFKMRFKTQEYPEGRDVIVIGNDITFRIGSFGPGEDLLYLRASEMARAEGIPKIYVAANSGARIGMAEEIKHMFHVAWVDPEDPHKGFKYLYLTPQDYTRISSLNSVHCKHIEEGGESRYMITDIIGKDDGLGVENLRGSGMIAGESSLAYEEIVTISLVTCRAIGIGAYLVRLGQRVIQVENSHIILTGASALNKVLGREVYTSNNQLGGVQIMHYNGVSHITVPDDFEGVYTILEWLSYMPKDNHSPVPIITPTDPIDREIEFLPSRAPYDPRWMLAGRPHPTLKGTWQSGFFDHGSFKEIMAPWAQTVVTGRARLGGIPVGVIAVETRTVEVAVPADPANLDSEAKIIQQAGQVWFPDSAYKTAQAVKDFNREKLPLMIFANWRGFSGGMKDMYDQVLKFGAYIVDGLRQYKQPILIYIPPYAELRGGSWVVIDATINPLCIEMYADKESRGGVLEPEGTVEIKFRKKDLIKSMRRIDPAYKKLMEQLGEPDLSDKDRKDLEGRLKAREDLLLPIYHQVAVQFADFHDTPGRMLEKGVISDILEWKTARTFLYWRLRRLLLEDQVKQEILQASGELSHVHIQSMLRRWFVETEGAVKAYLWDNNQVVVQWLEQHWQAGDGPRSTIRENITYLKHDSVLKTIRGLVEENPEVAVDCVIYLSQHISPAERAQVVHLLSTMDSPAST

SMILES | IC50
CC(=O)NC(C)Cc1ccc(C#Cc2ccc(OCc3cnco3)cc2)cc1 (stereo not shown) [Example 9.41] | 0.5 µM
CC(=O)NC(C)Cc1ccc(C#Cc2ccc(C(=O)NCc3cccnc3)cc2)cc1 (stereo not shown) [Example 8.3] | 13 µM
CC(=O)NC(C)Cc1ccc(C#Cc2cccc(OCc3cn(C)cn3)c2)cc1 (stereo not shown) [Example 9.14] | 1.6 µM
CCOc1ccc(C#Cc2ccc(CC(C)NS(C)(=O)=O)cc2)cc1 (stereo not shown) [Example 5.4] | 0.33 µM
CCCOc1ccc(C#Cc2ccc(C(C)(C)NC(C)=O)cc2)c(OC)c1 [Example 2.40] | 11.8 µM
CCOc1ccc(C#Cc2ccc(CC(C)NC(=O)C3CCCO3)cc2)cc1 (stereo not shown) [Example 4.37] | 0.9 µM
CC(=O)NC(C)Cc1ccc(C#Cc2ccn(CC(C)C)c(=O)c2)cc1 (stereo not shown) [Example 2.82] | 1.6 µM
CCOc1ccc(C#Cc2ccc(C(C)NC(=O)C(C)O)cc2)cc1 (stereo not shown) [Example 4.40] | 3.7 µM
CCOc1ccc(C#Cc2ccc(CC(C)NC(=O)c3cnc[nH]3)cc2)cc1 (stereo not shown) [Example 4.66] | 4.7 µM
CC(=O)NC(C)Cc1ccc(C#Cc2ccc3cc[nH]c3c2)cc1 (stereo not shown) [Example 3.5] | 0.66 µM
C=CC(=O)NC(C)Cc1ccc(C#Cc2ccc(OCC)cc2)cc1 (stereo not shown) [Example 4.8] | 0.46 µM
CC(=O)NC(C)Cc1ccc(C#Cc2ccc(C(=O)N(C)c3ccccc3)cc2)cc1 (stereo not shown) [Example 8.19] | 4.6 µM
CCCCOc1ccc(C#Cc2ccc(CC(C)NC(C)=O)cc2)cc1 (stereo not shown) [Example 9.3] | 0.09 µM
COc1ncc(C#Cc2ccc(CC(C)NC(C)=O)cc2)c(OC)n1 (stereo not shown) [Example 2.9] | 1.5 µM
CCNC(=O)c1cccc(C#Cc2ccc(CC(C)NC(C)=O)cc2)c1 (stereo not shown) [Example 8.38] | 14.3 µM
CC(=O)NC(C)Cc1ccc(C#Cc2ccc(OC(C)c3ccncc3)cc2)cc1 (stereo not shown) [Example 9.25] | 2.5 µM
CC(CNC(=O)C(F)F)c1ccc(C#Cc2cnc(OC3CCC3)nc2)cc1 (stereo not shown) [Example 4.79] | 0.16 µM
CC(=O)NC(C)Cc1ccc(C#Cc2ccc(-c3ccc(C)cc3)cn2)cc1 (stereo not shown) [Example 1.17] | 0.39 µM
COc1ncc(C#Cc2ccc(C(C)CNC(=O)c3cn[nH]c3)cc2)cn1 (stereo not shown) [Example 4.80] | 7.7 µM
CCOc1ccc(C#Cc2ccc(CC(C)NC(=O)[C@H](C)OC)cc2)cc1 (stereo partly shown) [Example 4.50] | 6.3 µM
CC(=O)NC(C)Cc1ccc(C#Cc2cccc(C(=O)N3CCCCC3)c2)cc1 (stereo not shown) [Example 8.32] | 2.1 µM
CCOCCOc1ccc(C#Cc2ccc(CC(C)NC(C)=O)cc2)cc1 (stereo not shown) [Example 9.19] | 0.28 µM

SMILES | IC50
CC(Cc1ccc(C#Cc2ccc(OC(C)(C)C)cc2)cc1)NC(=O)C1CC1 (stereo not shown) [Example 2.61] | 2 µM
CC(=O)NC(C)Cc1ccc(C#Cc2ccc3ncccc3c2)cc1 (stereo not shown) [Example 2.74] | 1.1 µM
COCc1ccc(C#Cc2ccc(CC(C)NC(C)=O)cc2)cc1 (stereo not shown) [Example 2.109] | 0.79 µM
CCOc1ccc(C#Cc2ccc(CC(C)NC(=O)CC#N)cc2)cc1 (stereo not shown) [Example 4.9] | 0.4 µM
CCOc1ccc(C#Cc2ccc(CC(C)NC(=O)C3CCC(=O)NC3)cc2)cc1 (stereo not shown) [Example 4.64] | 5.1 µM
CC(=O)NC(C)Cc1ccc(C#Cc2ccc(C(F)(F)F)cc2Cl)cc1 (stereo not shown) [Example 2.3] | 1.4 µM
C=CC(=O)NC(C)c1ccc(C#Cc2ccc(OCC)cc2)cc1 (stereo not shown) [Example 4.39] | 0.71 µM
CC(=O)NC(C)Cc1ccc(C#Cc2ccc(C(=O)NC(C)C)cc2)cc1 (stereo not shown) [Example 8.20] | 4.4 µM
CCOc1ccc(C#Cc2ccc(CC(C)NC(C)=O)cc2)cn1 (stereo not shown) [Example 2.31] | 0.28 µM
CC(=O)NC(C)Cc1ccc(C#Cc2cccc(C(=O)N3CCN(C(C)C)CC3)c2)cc1 (stereo not shown) [Example 1.9] | 8.4 µM
CCCOc1ccc(C#Cc2ccc(CC(C)NC(C)=O)cc2)c(Cl)c1 (stereo not shown) [Example 2.93] | 0.08 µM
CC(=O)NC(C)Cc1ccc(C#Cc2ccc(OC3CCN(C)C3)cc2)cc1 (stereo not shown) [Example 9.7] | 1.9 µM
CC(=O)NC(C)Cc1ccc(C#Cc2cccc(C(=O)NCc3ccccn3)c2)cc1 (stereo not shown) [Example 8.23] | 10.9 µM
CC(=O)NC(C)Cc1ccc(C#Cc2cccc(C(=O)NC(C)c3ccccc3)c2)cc1 (stereo not shown) [Example 8.41] | 23.3 µM
CCOc1ccc(C#Cc2ccc(CC(C)NC(=O)C=C(C)C)cc2)cc1 (stereo not shown) [Example 4.17] | 0.47 µM
CC(=O)NC(C)Cc1ccc(C#Cc2cc(C)c3c(c2)oc(=O)n3C)cc1 (stereo not shown) [Example 2.81] | 4 µM
CC(=O)NC(C)Cc1ccc(C#Cc2ccc(OC(C)(C)C)cc2)cc1 (stereo not shown) [Example 2.75] | 0.1 µM
CCCOc1ccc(C#Cc2ccc(CC(C)NC(C)=O)cc2)c(C)c1 (stereo not shown) [Example 2.95] | 0.11 µM
CC(=O)NC(C)Cc1ccc(C#Cc2ccc(C(=O)N(C)C3CCCC3)cc2)cc1 (stereo not shown) [Example 8.13] | 2.4 µM
CC(=O)NC(C)Cc1ccc(C#Cc2ccc(OCc3c[nH]cn3)cc2)cc1 (stereo not shown) [Example 9.38] | 2.6 µM
CC(=O)NC(C)Cc1ccc(C#Cc2ccc(Oc3ccncc3)cc2)cc1 (stereo not shown) [Example 10.2] | 1.2 µM

Second part, the compound after the results:

IC50 | SMILES
0.43 µM | CC(=O)NC(C)Cc1ccc(C#Cc2cnc(OC3Cc4ccccc4C3)nc2)cc1 (stereo not shown) [Example 12.52]
0.13 µM | CC(=O)NC(C)Cc1ccc(C#Cc2ccc(-c3ccccc3)cc2)cc1 (stereo not shown) [21.1]
0.6 µM | CC(=O)NCCc1ccc(C#Cc2ccc(OCC(C)C)cc2)cc1 [Example 14.34]
2.5 µM | CC(=O)NC(C)Cc1ccc(C#Cc2cnc(OCc3cc(C)on3)nc2)cc1 (stereo not shown) [Example 12.14]
0.45 µM | CCOc1ccc(C#Cc2ccc(CC(C)NC(C)=O)cc2)nc1 (stereo not shown) [Example 23.13]
0.14 µM | CC(=O)NC(C)Cc1ccc(C#Cc2ccc(C(C)(C)C)cc2)cc1 (stereo not shown) [25.1]
0.24 µM | CC(=O)NC(C)CCc1ccc(C#Cc2cnc(OC3CCC3)nc2)cc1 (stereo not shown) [Example 14.54]
0.38 µM | CCOc1ncc(C#Cc2ccc(CC(C)NC(C)=O)cc2)cn1 (stereo not shown) [Example 12.17]
0.43 µM | CC(=O)NC(C)Cc1ccc(C#Cc2ccnc(N3CCCCC3)n2)cc1 (stereo not shown) [Example 11.38]
0.19 µM | CCOc1ccc(C#Cc2ccc([C@H](C)NC(C)=O)cc2)cc1 [Example 14.19]
0.37 µM | CC(=O)NC(C)Cc1ccc(C#Cc2ccnc(N(C)CC3CCCCC3)n2)cc1 (stereo not shown) [Example 11.23]
0.2 µM | CC(C)Nc1ncc(C#Cc2ccc(CC(C)NC(=O)N(C)C)cc2)cn1 (stereo not shown) [Example 13.24]
26.9 µM | CCOc1ccc(C#Cc2ccc(CCNC(C)=O)cn2)cc1 [Example 35.3]
0.17 µM | CC(=O)NC(C)CCc1ccc(C#Cc2ccc(OCC3CC3)cc2)cc1 (stereo not shown) [Example 14.12]
0.33 µM | CC(=O)NC(C)Cc1ccc(C#Cc2cnc(N[C@H]3CCc4ccccc43)nc2)cc1 (stereo partly shown) [Example 13.62]
0.98 µM | CC(=O)N[C@@H](C)c1ccc(C#Cc2cnc(Oc3ccccc3)nc2)cc1 [Example 12.68]
0.33 µM | CCC(CC)Nc1ncc(C#Cc2ccc(CC(C)NC(C)=O)cc2)cn1 (stereo not shown) [Example 13.81]
1.6 µM | COC(=O)NC(C)Cc1ccc(C#Cc2cnc(NC3CC3)nc2)cc1 (stereo not shown) [Example 13.36]
0.2 µM | CC(=O)NC(C)Cc1ccc(C#Cc2cnc(N[C@@H]3CCc4ccccc43)nc2)cc1 (stereo partly shown) [Example 13.63]
1.1 µM | CCCOc1ncc(C#Cc2ccc(CC(C)NC(=O)C3CC3)cc2)cn1 (stereo not shown) [Example 12.23]
3.4 µM | COC(=O)NC(C)Cc1ccc(C#Cc2cnc(NCc3ccncc3)nc2)cc1 (stereo not shown) [Example 13.28]

IC50 | SMILES
0.14 µM | CCCOc1ccc(C#Cc2ccc([C@H](C)NC(C)=O)cc2)cc1 [Example 14.23]
0.45 µM | CC(=O)NC(C)Cc1ccc(C#Cc2cnc(NCC3CC3)nc2)cc1 (stereo not shown) [Example 13.10]
13.1 µM | CCOc1ccc(C#Cc2ccc(C(C)NC(=O)OC)cc2)cc1 (stereo not shown) [Example 29.1, {1-[4-(4-Ethoxy-phenylethynyl)-phenyl]ethyl}-carbamic acid methyl ester]
0.68 µM | CC(=O)NC(C)Cc1ccc(C#Cc2ccnc(N3CCCC(F)C3)n2)cc1 (stereo not shown) [Example 11.16]
0.13 µM | CC(=O)NC(C)Cc1ccc(C#Cc2cnc(Oc3cccc(F)c3)nc2)cc1 (stereo not shown) [Example 12.47]
4.7 µM | COC(=O)NC(C)Cc1ccc(C#Cc2cnc(N3CCCC3)nc2)cc1 (stereo not shown) [Example 13.34]
1.3 µM | CC(Cc1ccc(C#Cc2cnc(NC3CC3)nc2)cc1)NC(=O)C1CC1 (stereo not shown) [Example 13.48]
3.1 µM | C[C@H](NC(=O)C1CC1)c1ccc(C#Cc2cnc(NC3CCC3)nc2)cc1 [Example 13.88]
2.6 µM | CCOc1ncc(C#Cc2ccc([C@H](C)NC(C)=O)cc2)cn1 [Example 12.69]
0.72 µM | CC(=O)NC(C)Cc1ccc(C#Cc2ccnc(N3CCCCC3C)n2)cc1 (stereo not shown) [Example 11.39]
0.1 µM | CC(=O)NC(C)Cc1ccc(C#Cc2cnc(NCc3ccccc3)nc2)cc1 (stereo not shown) [Example 13.6]
0.12 µM | COc1ccc(CNc2ncc(C#Cc3ccc(CC(C)NC(C)=O)cc3)cn2)cc1 (stereo not shown) [Example 13.86]
0.12 µM | CC(Cc1ccc(C#Cc2cnc(NC3CCC3)nc2)cc1)NC(=O)N(C)C (stereo not shown) [Example 13.27]
1.2 µM | CCOc1ccc(C#Cc2ccc(CC(COC)NC(C)=O)cc2)cc1 (stereo not shown) [Example 27.2]
1.6 µM | CC(=O)NC(C)Cc1ccc(C#Cc2cnc(NCCF)nc2)cc1 (stereo not shown) [Example 13.65]
0.29 µM | COC(=O)NC(C)Cc1ccc(C#Cc2cnc(NC3CCCC3)nc2)cc1 (stereo not shown) [Example 13.35]
0.16 µM | CCCC(C)Nc1ncc(C#Cc2ccc(CC(C)NC(C)=O)cc2)cn1 (stereo not shown) [Example 13.15]
0.17 µM | CC(=O)NC(C)Cc1ccc(C#Cc2cnc(NC(C)C)nc2)cc1 (stereo not shown) [Example 13.4]
5 µM | CC(=O)NC(C)Cc1ccc(C#Cc2cnc(NCc3csc(C)n3)nc2)cc1 (stereo not shown) [Example 13.69]
0.53 µM | CC(=O)NC(C)Cc1ccc(C#Cc2ccnc(N(C)Cc3ccccc3)n2)cc1 (stereo not shown) [Example 11.45]
1.7 µM | CC(=O)NC(C)Cc1ccc(C#Cc2ccc(OCc3nccs3)cc2)cc1 (stereo not shown) [Example 31.1, N-(1-Methyl-2-(4-(4-(thiazol-2-ylmethoxy)-phenylethynyl)-phenyl)-ethyl)-acetamide]
